Laboratory results reported in patent publication US20240238242A1, “EGCG buccal tablet and use thereof” (priority 2023, published 2024).
Values joined by “and” are separate entries in the source; they are usually repeats but may differ in a detail not shown here. Equal entries are not always repeated. Where two headings read alike, the source gives them in different places.

Test system: Influenza A H1N1 virus (H1N1-PR8)
Format: cell-based
Conditions: for inactivation efficiency against the virus: single experiment; for average inactivation efficiency against virus: three experiments
[1] = 1 mM EGCG, PR8 virus, 5 minutes
[2] = 5 mM EGCG, PR8 virus, 5 minutes

## O=C(O[C@@H]1Cc2c(O)cc(O)cc2O[C@@H]1c1cc(O)c(O)c(O)c1)c1cc(O)c(O)c(O)c1 [EGCG, Epigallocatechin gallate]
1 mM EGCG + PR8 virus, co-incubated 5 minutes, first experiment, dilution factor 10^4, wells 1-10
  CPE test (virus replication in the cell wells): +
1 mM EGCG + PR8 virus, co-incubated 5 minutes, first experiment, dilution factor 10^5, wells 1-10
  CPE test (virus replication in the cell wells): +
1 mM EGCG + virus, PR8, 1 minute, first experiment, dilution factor 10^3, wells 1-10
  CPE test (virus replication in the cell wells): +
1 mM EGCG + virus, PR8, 1 minute, first experiment, dilution factor 10^4, wells 1-10
  CPE test (virus replication in the cell wells): +
1 mM EGCG + virus, PR8, 1 minute, first experiment, dilution factor 10^5, wells 1-10
  CPE test (virus replication in the cell wells): +
1 mM EGCG + virus, PR8, 1 minute, first experiment, dilution factor 10^6, wells 1-10
  CPE test (virus replication in the cell wells): + and −
1 mM EGCG + virus, PR8, 1 minute, first experiment, dilution factor 10^7, wells 1-10
  CPE test (virus replication in the cell wells): −
1 mM EGCG + virus, PR8, 1 minute, first experiment, dilution factor 10^8, wells 1-10
  CPE test (virus replication in the cell wells): −
1 mM EGCG + virus, PR8, 1 minute, second experiment, dilution factor 10^1, wells 1-10
  CPE test (virus replication in the cell wells): +
1 mM EGCG + virus, PR8, 1 minute, second experiment, dilution factor 10^2, wells 1-10
  CPE test (virus replication in the cell wells): +
1 mM EGCG + virus, PR8, 1 minute, second experiment, dilution factor 10^3, wells 1-10
  CPE test (virus replication in the cell wells): +
1 mM EGCG + virus, PR8, 1 minute, second experiment, dilution factor 10^4, wells 1-10
  CPE test (virus replication in the cell wells): +
1 mM EGCG + virus, PR8, 1 minute, second experiment, dilution factor 10^5, wells 1-10
  CPE test (virus replication in the cell wells): +
1 mM EGCG + virus, PR8, 1 minute, second experiment, dilution factor 10^6, wells 1-10
  CPE test (virus replication in the cell wells): − and +
1 mM EGCG + virus, PR8, 1 minute, second experiment, dilution factor 10^7, wells 1-10
  CPE test (virus replication in the cell wells): −
1 mM EGCG + virus, PR8, 1 minute, second experiment, dilution factor 10^8, wells 1-10
  CPE test (virus replication in the cell wells): −
1 mM EGCG, PR8 virus, 1 minute
  inactivation efficiency against the virus: 87.41% and 80.05%
  average inactivation efficiency against virus: 82.50%
[1]
  inactivation efficiency against the virus: 87.41% and 84.15% and 90.00%
  average inactivation efficiency against virus: 87.19%
5 mM EGCG + PR8 virus, 5 minutes, third experiment, dilution factor 10^4
  CPE test, virus replication in cell wells (wells 1-10): + and −
5 mM EGCG + PR8 virus, 5 minutes, third experiment, dilution factor 10^5
  CPE test, virus replication in cell wells (wells 1-10): − and +
5 mM EGCG + PR8 virus, 5 minutes, third experiment, dilution factor 10^6
  CPE test, virus replication in cell wells (wells 1-10): −
5 mM EGCG + PR8 virus, 5 minutes, third experiment, dilution factor 10^7
  CPE test, virus replication in cell wells (wells 1-10): −
5 mM EGCG + PR8 virus, 5 minutes, third experiment, dilution factor 10^8
  CPE test, virus replication in cell wells (wells 1-10): −
5 mM EGCG + PR8 virus, co-incubated 1 minute, third experiment, dilution factor 10^4, wells 1-10
  CPE test (virus replication in the cell wells): +
5 mM EGCG + PR8 virus, co-incubated 1 minute, third experiment, dilution factor 10^5, wells 1-10
  CPE test (virus replication in the cell wells): + and −
5 mM EGCG + PR8 virus, co-incubated 1 minute, third experiment, dilution factor 10^6, wells 1-10
  CPE test (virus replication in the cell wells): − and +
5 mM EGCG + PR8 virus, co-incubated 1 minute, third experiment, dilution factor 10^7, wells 1-10
  CPE test (virus replication in the cell wells): −
5 mM EGCG + PR8 virus, co-incubated 1 minute, third experiment, dilution factor 10^8, wells 1-10
  CPE test (virus replication in the cell wells): −
5 mM EGCG + PR8 virus, co-incubated 5 minutes, first experiment, dilution factor 10^4, wells 1-10
  CPE test (virus replication in the cell wells): −
5 mM EGCG + PR8 virus, co-incubated 5 minutes, first experiment, dilution factor 10^5, wells 1-10
  CPE test (virus replication in the cell wells): −
5 mM EGCG + PR8 virus, co-incubated 5 minutes, first experiment, dilution factor 10^6, wells 1-10
  CPE test (virus replication in the cell wells): −
5 mM EGCG + PR8 virus, co-incubated 5 minutes, first experiment, dilution factor 10^7, wells 1-10
  CPE test (virus replication in the cell wells): −
5 mM EGCG + PR8 virus, co-incubated 5 minutes, first experiment, dilution factor 10^8, wells 1-10
  CPE test (virus replication in the cell wells): −
5 mM EGCG + virus, PR8, 1 minute, first experiment, dilution factor 10^4, wells 1-10
  CPE test (virus replication in the cell wells): + and −
5 mM EGCG + virus, PR8, 1 minute, first experiment, dilution factor 10^5, wells 1-10
  CPE test (virus replication in the cell wells): − and +
5 mM EGCG + virus, PR8, 1 minute, first experiment, dilution factor 10^6, wells 1-10
  CPE test (virus replication in the cell wells): −
5 mM EGCG + virus, PR8, 1 minute, first experiment, dilution factor 10^7, wells 1-10
  CPE test (virus replication in the cell wells): −
5 mM EGCG + virus, PR8, 1 minute, first experiment, dilution factor 10^8, wells 1-10
  CPE test (virus replication in the cell wells): −
5 mM EGCG + virus, PR8, 1 minute, second experiment, dilution factor 10^4, wells 1-10
  CPE test (virus replication in the cell wells): − and +
5 mM EGCG + virus, PR8, 1 minute, second experiment, dilution factor 10^5, wells 1-10
  CPE test (virus replication in the cell wells): − and +
5 mM EGCG + virus, PR8, 1 minute, second experiment, dilution factor 10^6, wells 1-10
  CPE test (virus replication in the cell wells): −
5 mM EGCG + virus, PR8, 1 minute, second experiment, dilution factor 10^7, wells 1-10
  CPE test (virus replication in the cell wells): −
5 mM EGCG + virus, PR8, 1 minute, second experiment, dilution factor 10^8, wells 1-10
  CPE test (virus replication in the cell wells): −
5 mM EGCG, PR8 virus, 1 minute
  inactivation efficiency against the virus: 99.50% and 99.60% and 93.69%
  average inactivation efficiency against virus: 97.60%
[2]
  residual virus titer of EGCG+virus group (Karber method): 10^4 TCID50/50 μL
  inactivation efficiency against the virus: 99.92% and 99.75% and 99.60%
  average inactivation efficiency against virus: 99.76%
